Values of other authors in patent US7705017B2, “Compounds for treatment of neurodegenerative diseases” (En Vivo Pharmaceuticals, Inc., priority 2004, dated 2010).

Assays:
[1] = system: Huntington's disease in a mouse model; conditions: orally administered
[2] = system: Histone Deacetylase-Like Protein (HDLP); conditions: HDLP deacetylates histones in vitro

O=C(CCCCCCC(=O)Nc1ccccc1)NO [SAHA, suberoylanilide hydroxamic acid]
motor impairment in mice [1]: dramatically improved the motor impairment

CC(/C=C/C(=O)NO)=C\[C@@H](C)C(=O)c1ccc(N(C)C)cc1 [TSA, trichostatin A]
inhibition of HDAC-like protein (HDLP) [2]: inhibited
